Each structure is given as a SMILES string. pIC50: −log10 of the molar value.

Common to all, as to assay type: functional, cell-based
In assay [1] the test system is MDA-MB-231. Description: Antiproliferative activity against human MDA-MB-231 cells after 48 hrs by CCK8 assay. Conditions: MDA-MB-231, 48 h. For orientation: Formazan colour is commonly taken as a measure of viable cells.
For assay [2], the system named is MCF7. As to the kind of experiment: Antiproliferative activity against human MCF7 cells after 48 hrs by CCK8 assay. Conditions: MCF7, 48 h.
The subject of assay [3] is HepG2. Description: Antiproliferative activity against human HepG2 cells after 48 hrs by CCK8 assay. To be noted: HepG2, 48 h.
The test system of assay [4] is K562. Description: Antiproliferative activity against human K562 cells after 48 hrs by CCK8 assay. To be noted: K562, 48 h.
Assay [5] deals with COLO 320. As to the kind of experiment: Antiproliferative activity against human COLO320 cells after 48 hrs by CCK8 assay. To be noted: COLO 320, 48 h.
Assay [6] concerns MDA-MB-231. Description: Synergistic antiproliferative activity against human MDA-MB-231 cells at compound to DMXAA mol ratio of 1:1 after 48 hrs by CCK8 assay. Conditions: MDA-MB-231, 48 h.
In assay [7] the test system is MCF7. Description: Synergistic antiproliferative activity against human MCF7 cells at compound to DMXAA mol ratio of 1:1 after 48 hrs by CCK8 assay. Conditions: MCF7, 48 h.
Assay [8] deals with HepG2. Description: Synergistic antiproliferative activity against human HepG2 cells at compound to DMXAA mol ratio of 1:1 after 48 hrs by CCK8 assay. To be noted: HepG2, 48 h.
For assay [9], the system named is K562. As to the kind of experiment: Synergistic antiproliferative activity against human K562 cells at compound to DMXAA mol ratio of 1:1 after 48 hrs by CCK8 assay. Conditions: K562, 48 h.
For assay [10], the system named is COLO 320. As to the kind of experiment: Synergistic antiproliferative activity against human COLO320 cells at compound to DMXAA mol ratio of 1:1 after 48 hrs by CCK8 assay. Conditions: COLO 320, 48 h.

Usually pIC50 stands for the IC50 on a negative log10 scale, so that one unit is a factor of ten. On to `Cc1ccc2c(=O)c3c(O)cc(O)cc3oc2c1`, for which the pIC50 in assay [1] was 5.07; in assay [2], 5.38; in assay [3] it was 4.90; in assay [4], 5.29; in assay [5] it was 4.57; in assay [6], 5.58. Further, the pIC50 in [7] is 5.69; in assay [8], 5.06; in assay [9], 5.33; in assay [10] it was 4.64.

As to `O=c1c2cc(Cl)ccc2oc2cc(O)cc(O)c12`, the pIC50 was 5.28 in assay [1]; 5.92 in assay [2]; 5.49 in [3]; 5.28 in assay [4]; 4.82 in assay [5]; 5.51 in [6]. The pIC50 in assay [7] is 5.94; in assay [8], 5.37; in [9], 5.64; in assay [10], 5.04.

In the case of `COc1cc(OC)c2c(=O)c3ccc(O)cc3oc2c1`, the pIC50 in [1] is 5.02; in assay [2] it was 4.95; in assay [3], 5.06; in [4] it was 4.54; in assay [5], 4.92; in assay [6] it was 5.04. Also, the pIC50 is 4.85 in assay [7], 5.07 in assay [8], 4.58 in assay [9] and 4.99 in [10].

Values taken from ChEMBL document CHEMBL4033623, “Synthesis of xanthone derivatives and studies on the inhibition against cancer cells growth and synergistic combinations of them” (Eur J Med Chem, 2017).
